Experimental data as given in patent publication US20110190392A1, “Polysaccharide Based Antimicrobial Formulations” (priority 2010, published 2011).

Tests used:
Format in all cases: cell-based
Ad-5 = experiment: Antiviral log reduction (Table 2B)
[1] = tested on: Pseudomonas aeruginosa ATCC 27853; experiment: MBC of NVC-422 (Table 2A); conditions: ATCC27853
[2] = tested on: Enterococcus faecium [VRE] ATCC 51559; experiment: MBC of NVC-422 (Table 2A)
[3] = tested on: Haemophilus influenzae ATCC 49144; experiment: MBC of NVC-422 (Table 2A); conditions: ATCC49144
[4] = tested on: Escherichia coli ATCC 25922; experiment: MBC of NVC-422 (Table 2A); conditions: ATCC25922
[5] = tested on: Serratia marcescens ATCC 14756; experiment: MBC of NVC-422 (Table 2A); conditions: ATCC14756
[6] = tested on: Proteus mirabilis ATCC 29245; experiment: MBC of NVC-422 (Table 2A); conditions: ATCC29245
[7] = tested on: Klebsiella pneumoniae ATCC 10031; experiment: MBC of NVC-422 (Table 2A); conditions: ATCC10031
[8] = tested on: Enterobacter aerogenes ATCC 51697; experiment: MBC of NVC-422 (Table 2A); conditions: Klebsiella aerogenes, ATCC51697
[9] = tested on: Staphylococcus sciuri ATCC 49575; experiment: MBC of NVC-422 (Table 2A); conditions: Mammaliicoccus sciuri, ATCC49575
Rhinovirus-39 = experiment: Antiviral log reduction (Table 2B)
[10] = tested on: Candida albicans ATCC 10231; experiment: MBC of NVC-422 (Table 2A); conditions: ATCC10231
[11] = tested on: Enterococcus faecalis ATCC 29212; experiment: MBC of NVC-422 (Table 2A); conditions: ATCC29212
[12] = tested on: Staphylococcus aureus ATCC 6358; experiment: MBC of NVC-422 (Table 2A); conditions: ATCC6358
[13] = tested on: Serratia marcescens ATCC 13880; experiment: MBC of NVC-422 (Table 2A); conditions: ATCC13880
HSV-1 = experiment: Antiviral log reduction (Table 2B)
[14] = tested on: Staphylococcus epidermidis ATCC 12228; experiment: MBC of NVC-422 (Table 2A); conditions: ATCC12228
Influenza A = experiment: Antiviral log reduction (Table 2B)
[15] = tested on: Candida glabrata ATCC 90030; experiment: MBC of NVC-422 (Table 2A); conditions: Nakaseomyces glabratus, ATCC90030
[16] = tested on: Acinetobacter baumanii ATCC 19606; experiment: MBC of NVC-422 (Table 2A); conditions: Acinetobacter baumannii, ATCC19606
[17] = tested on: Acinetobacter calcoaceticus ATCC 51432; experiment: MBC of NVC-422 (Table 2A); conditions: ATCC51432
[18] = tested on: Staphylococcus aureus ATCC 29213; experiment: MBC of NVC-422 (Table 2A); conditions: ATCC29213
[19] = tested on: Staphylococcus hominis ATCC 27844; experiment: MBC of NVC-422 (Table 2A); conditions: ATCC27844
[20] = tested on: Staphylococcus aureus [MRSA] ATCC 33591; experiment: MBC of NVC-422 (Table 2A)

Nc1ccn(C[C@@H](CO)OCP(=O)(O)O)c(=O)n1 [Cidofovir, reference compound]
Log Reduction (Ad-5; (Ad5/A549 control)/Cidofovir, column 0.001%): 0
Log Reduction (Ad-5; (Ad5/A549 control)/Cidofovir, column 0.01%): 0

CC(C)(CS(=O)(=O)O)N(Cl)Cl [NVC-422, N,N-dichloro-2,2-dimethyltaurine]
MBC [1]: 1 µg/mL
MBC [2]: 0.5 µg/mL
MBC [3]: 0.5 µg/mL
MBC [4]: 2 µg/mL
MBC [5]: 2 µg/mL
MBC [6]: 1 µg/mL
MBC [7]: 0.25 µg/mL
MBC [8]: 0.5 µg/mL
MBC [9]: 0.12 µg/mL
Log Reduction (Rhinovirus-39; concentration of NVC-422 0.01%): 1.7
Log Reduction (Rhinovirus-39; concentration of NVC-422 0.1%): >1.5
MBC [10]: 32 µg/mL
MBC [11]: 0.5 µg/mL
MBC [12]: 2 µg/mL
MBC [13]: 1 µg/mL
Log Reduction (HSV-1; HSV-1 + 10% tears, concentration of NVC-422 0.001%): 4.5
Log Reduction (HSV-1; HSV-1 + 10% tears, concentration of NVC-422 0.01%): >4.5
Log Reduction (HSV-1; HSV-1, concentration of NVC-422 0.001%): >4.5
Log Reduction (HSV-1; HSV-1, concentration of NVC-422 0.01%): >4.5
MBC [14]: 0.25 µg/mL
Log Reduction (Influenza A; concentration of NVC-422 0.01%): 0.3
Log Reduction (Influenza A; concentration of NVC-422 0.1%): 1.0
Log Reduction (Influenza A; concentration of NVC-422 1.0%): >3.8
MBC [15]: 16 µg/mL
MBC [16]: 4 µg/mL
MBC [17]: 2 µg/mL
MBC [18]: 2 µg/mL
MBC [19]: 4 µg/mL
MBC [20]: 4 µg/mL
Log Reduction (Ad-5; Ad-5 + 10% tears, concentration of NVC-422 0.001%): 1.0
Log Reduction (Ad-5; Ad-5 + 10% tears, concentration of NVC-422 0.01%): 1.7
Log Reduction (Ad-5; Ad-5 + 10% tears, concentration of NVC-422 0.1%): >3.8
Log Reduction (Ad-5; Ad-5, concentration of NVC-422 0.001%): 2.8
Log Reduction (Ad-5; Ad-5, concentration of NVC-422 0.01%): 4.3
Log Reduction (Ad-5; Ad-5, concentration of NVC-422 0.1%): >4.3
